Measured values reported in patent US9981972B2, “N-hydroxy bicyclic hydantoin carbamates as tools for identification of serine hydrolase targets” (ABIDE THERAPEUTICS, INC., priority 2014, dated 2018).
Entries after “also recorded” stand apart in the source; their conditions may differ.

Legend:
Assay type in all cases: biochemical
[1] = tested on: FP-sensitive SHs in the mouse brain membrane proteome; experiment: Gel-based competitive ABPP in vitro, mouse brain membrane proteome, anti-targets; details: for Anti-target(s) 0.1 μM: SHs with at least 50% inhibition at 0.1 μM compound; for Anti-target(s) 1 μM: SHs with at least 50% inhibition at 1 μM compound; for Anti-target(s) 10 μM: SHs with at least 50% inhibition at 10 μM compound; for Anti-target(s) 100 μM: SHs with at least 50% inhibition at 100 μM compound
Procedure: (§1) Assay Overview: The purpose of this assay was to determine whether test compounds can inhibit LYPLA1 and LYPLA2 in a complex proteomic lysate and to assess anti-target inhibition using a competitive activity-based proteomic profiling (ABPP) assay. In this assay, a complex proteome endogenously expressing LYPLA1/2 was incubated with test compound followed by reaction with a rhodamine-conjugated fluorophosphonate (FP-Rh) serine-hydrolase specific activity-based probe. The reaction products were separated by SDS-PAGE and visualized in-gel using a flatbed fluorescence scanner. The percentage activity remaining was determined by measuring the integrated optical density of the bands. […] Percent inhibition was calculated relative to a DMSO (no compound) control.
(§2) Protocol Summary: Mouse brain membrane proteome (50 μL reaction volume, 1 mg/mL in DPBS) was treated with 0.1-100 μM test compound (1 μL of a 50× stock in DMSO) for 30 minutes at 37° C. FP-Rh (1 μL of 50× stock in DMSO, Thermo #88318) was added to a final concentration of 2 μM. The reactions were incubated for 30 minutes at 25° C., quenched with 16 μL 4×SDS-PAGE loading buffer (reducing), separated by SDS-PAGE and visualized by in-gel fluorescent scanning. The percentage activity remaining was determined by measuring the integrated optical density of the bands relative to a DMSO-only (no compound) control. Assay Cutoff: Compounds with ≥50% inhibition of targets at 1 μM test compound concentration were considered active.
(§3) N-Hydroxy bicyclic hydantoin carbamates (Compounds 1-20) listed in Table 1 were subjected to gel-based competitive ABPP screening to assess SH reactivity against more than 20 FP-sensitive SHs visible by 1D SDS-PAGE separation and fluorescent detection in the mouse brain proteome (see FIG. 1). […] Compound treatment ([…], 30 minutes) was followed by labeling with SH-specific ABPP probe FP-Rh (2 μM, 30 minutes), 1D-SDS-PAGE, and in-gel fluorescent visualization of FP-labeled proteins. Assignment of LYPLA1/2 bands was based on correlation of molecular weights, expression and inhibition profiles with LC-MS/MS data and recombinant enzyme expression. Proteins were listed as anti-targets if at least 50% inhibition was observed as quantified relative to the DMSO control.
(§4) Compounds 1-20 were subjected to gel-based competitive ABPP profiling to assess potency and selectivity against several dozen FP-sensitive SHs in the mouse brain membrane proteome, which endogenously expresses LYPLA1 and LYPLA2, as well a diversity of potential SH anti-targets. Compounds were tested at 100 μM, 10 μM, 1 μM, and/or 0.1 μM compound concentration.

[2] = target: T1, LYPLA1 (Mus musculus, UniProt P97823); experiment: Gel-based competitive ABPP in vitro, mouse brain membrane proteome; details: 30 min, one replicate; for inhibition at 0.1 µM: 0.1 μM compound, read-out: LYPLA1 % INH 0.1 μM; for inhibition at 1 µM: 1 μM compound, read-out: LYPLA1 % INH 1 μM; for inhibition at 10 µM: 10 μM compound, read-out: LYPLA1 % INH 10 μM; for inhibition at 100 µM: 100 μM compound, read-out: LYPLA1 % INH 100 μM
T1 construct: a complex proteome endogenously expressing LYPLA1/2 was incubated with test compound; from tissue; host or cells: mouse brain, membrane fraction
T1 sequence (P97823 whole entry): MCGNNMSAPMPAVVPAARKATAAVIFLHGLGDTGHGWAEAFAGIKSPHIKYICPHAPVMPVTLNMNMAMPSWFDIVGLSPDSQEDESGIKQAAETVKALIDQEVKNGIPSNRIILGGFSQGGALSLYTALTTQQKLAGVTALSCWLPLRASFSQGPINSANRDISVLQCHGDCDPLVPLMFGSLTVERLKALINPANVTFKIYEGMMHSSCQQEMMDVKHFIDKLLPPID
Procedure: as §1, §2, §3, §4

[3] = target: T2, LYPLA2 (Mus musculus, UniProt Q9WTL7); experiment: as above; details: 30 min, one replicate; for inhibition at 0.1 µM: 0.1 μM compound, read-out: LYPLA2 % INH 0.1 μM; for inhibition at 1 µM: 1 μM compound, read-out: LYPLA2 % INH 1 μM; for inhibition at 10 µM: 10 μM compound, read-out: LYPLA2 % INH 10 μM; for inhibition at 100 µM: 100 μM compound, read-out: LYPLA2 % INH 100 μM
T2 construct: a complex proteome endogenously expressing LYPLA1/2 was incubated with test compound; from tissue; host or cells: mouse brain, membrane fraction
T2 sequence (Q9WTL7 whole entry): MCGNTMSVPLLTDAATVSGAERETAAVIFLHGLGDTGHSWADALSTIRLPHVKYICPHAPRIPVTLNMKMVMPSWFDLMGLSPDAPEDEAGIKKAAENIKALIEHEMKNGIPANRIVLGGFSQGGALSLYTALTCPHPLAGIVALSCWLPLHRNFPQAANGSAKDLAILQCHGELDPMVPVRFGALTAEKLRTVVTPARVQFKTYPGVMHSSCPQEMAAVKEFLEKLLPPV
Procedure: as §1, §2, §3, §4

| SMILES | inhibition at 0.1 µM [2] | inhibition at 1 µM [2] | inhibition at 10 µM [2] | inhibition at 100 µM [2] | inhibition at 0.1 µM [3] | inhibition at 1 µM [3] | inhibition at 10 µM [3] | inhibition at 100 µM [3] | Anti-target(s) 0.1 μM [1] | Anti-target(s) 1 μM [1] | Anti-target(s) 10 μM [1] | Anti-target(s) 100 μM [1] |
| --- | --- | --- | --- | --- | --- | --- | --- | --- | --- | --- | --- | --- |
| O=C(Cc1ccccc1)N1CCN2C(=O)N(OC(=O)N3CCC(CCc4ccc(Cl)cc4)CC3)C(=O)C2C1 (stereo not drawn) [Compound 6, 1,3-dioxo-7-(2-phenylacetyl)hexahydroimidazo[1,5-a]pyrazin-2(3H)-yl 4-(4-chlorophenethyl)piperidine-1-carboxylate] | 25% | 95% | 100% | 100% | 25% | 95% | 100% | 100% | ABHD6 | FAAH,; also recorded: ABHD6 | FAAH,; also recorded: MAGL,; also recorded: ABHD6 | FAAH,; also recorded: MAGL,; also recorded: ABHD6 |
| Cc1ccc(C(=O)N2CCN3C(=O)N(OC(=O)N4CCC(CCc5ccc(Cl)cc5)CC4)C(=O)C3C2)cc1 (stereo not drawn) [Compound 8, 7-(4-methylbenzoyl)-1,3-dioxohexahydroimidazo[1,5-a]pyrazin-2(3H)-yl 4-(4-chlorophenethyl)piperidine-1-carboxylate] |  | 75% | 100% | 100% |  | 75% | 100% | 100% |  | ABHD6 | FAAH,; also recorded: ABHD12,; also recorded: ABHD6 | FAAH,; also recorded: ABHD12,; also recorded: MAGL,; also recorded: ABHD6 |
| O=C(ON1C(=O)C2CN(C(=O)c3ccc(F)c([N+](=O)[O-])c3)CCN2C1=O)N1CCC(CCc2ccc(Cl)cc2)CC1 (stereo not drawn) [Compound 9, 7-(4-fluoro-3-nitrobenzoyl)-1,3-dioxohexahydroimidazo[1,5-a]pyrazin-2(3H)-yl 4-(4-chlorophenethyl)piperidine-1-carboxylate] |  | 90% | 100% | 100% |  | 90% | 100% | 100% |  | ABHD6 | FAAH,; also recorded: ABHD12,; also recorded: ABHD6 | FAAH,; also recorded: ABHD12,; also recorded: MAGL,; also recorded: ABHD6 |
| COC(=O)C1CCN(C(=O)ON2C(=O)C3CN(C(=O)OC(C)(C)C)CCN3C2=O)CC1 (stereo not drawn) [Compound 15, 1-(7-(tert-butoxycarbonyl)-1,3-dioxohexahydroimidazo[1,5-a]pyrazin-2(3H)-yl) 4-methyl piperidine-1,4-dicarboxylate] | 0% | 0% | 0% | 25% | 0% | 0% | 0% | 25% | ABHD6 | ABHD6 | ABHD6 | ABHD6 |
| CC(C)(C)OC(=O)N1CCN2C(=O)N(OC(=O)N3CCOCC3Cc3ccccc3)C(=O)C2C1 (stereo not drawn) [Compound 16, 7-(tert-butoxycarbonyl)-1,3-dioxohexahydroimidazo[1,5-a]pyrazin-2(3H)-yl 3-benzylmorpholine-4-carboxylate] | 0% | 0% | 0% | 0% | 0% | 0% | 0% | 0% | none | none | ABHD6 | ABHD6 |

The next lines start with results.

| inhibition at 0.1 µM [2] | inhibition at 1 µM [2] | inhibition at 10 µM [2] | inhibition at 100 µM [2] | inhibition at 0.1 µM [3] | inhibition at 1 µM [3] | inhibition at 10 µM [3] | inhibition at 100 µM [3] | SMILES | Anti-target(s) 0.1 μM [1] | Anti-target(s) 1 μM [1] | Anti-target(s) 10 μM [1] | Anti-target(s) 100 μM [1] |
| --- | --- | --- | --- | --- | --- | --- | --- | --- | --- | --- | --- | --- |
|  | 75% | 100% | 100% |  | 75% | 100% | 100% | CN(C)c1ccc(C(=O)N2CCN3C(=O)N(OC(=O)N4CCC(CCc5ccc(Cl)cc5)CC4)C(=O)C3C2)cc1 (stereo not drawn) [Compound 10, 7-(4-(dimethylamino)benzoyl)-1,3-dioxohexahydroimidazo[1,5-a]pyrazin-2(3H)-yl4-(4-chlorophenethyl)piperidine-1-carboxylate] |  |  |  |  |
|  | 90% | 100% | 100% |  | 90% | 100% | 100% | COc1ccc(C(=O)N2CCN3C(=O)N(OC(=O)N4CCC(CCc5ccc(Cl)cc5)CC4)C(=O)C3C2)cc1 (stereo not drawn) [Compound 11, 7-(4-methoxybenzoyl)-1,3-dioxohexahydroimidazo[1,5-a]pyrazin-2(3H)-yl 4-(4-chlorophenethyl)piperidine-1-carboxylate] |  | ABHD6 | FAAH,; also recorded: ABHD12,; also recorded: MAGL,; also recorded: ABHD6 | FAAH,; also recorded: ABHD12,; also recorded: MAGL,; also recorded: ABHD6 |
| 0% | 25% | 95% | 100% | 0% | 25% | 95% | 100% | O=C(ON1C(=O)C2CN(CCc3ccccc3)CCN2C1=O)N1CCC(CCc2ccc(Cl)cc2)CC1 (stereo not drawn) [Compound 12, 1,3-dioxo-7-phenethylhexahydroimidazo[1,5-a]pyrazin-2(3H)-yl 4-(4-chlorophenethyl)piperidine-1-carboxylate] | ABHD6 | ABHD6 | FAAH,; also recorded: ABHD4,; also recorded: MAGL,; also recorded: ABHD6 | FAAH,; also recorded: ABHD4,; also recorded: MAGL,; also recorded: ABHD6 |
| 0% | 0% | 0% | 25% | 0% | 0% | 0% | 25% | CC(C)(C)OC(=O)N1CCN2C(=O)N(OC(=O)N3CCCCC3)C(=O)C2C1 (stereo not drawn) [Compound 14, tert-butyl 1,3-dioxo-2-(piperidine-1-carbonyloxy)hexahydroimidazo[1,5-a]pyrazine-7(1H)-carboxylate] | ABHD6 | ABHD6 | ABHD6 | APEH,; also recorded: ABHD6 |
| 0% | 0% | 75% | 90% | 0% | 0% | 50% | 75% | CC(C)(C)OC(=O)N1CCN2C(=O)N(OC(=O)N3CCN(CCc4ccccc4)CC3)C(=O)C2C1 (stereo not drawn) [Compound 17, tert-butyl 1,3-dioxo-2-(4-phenethylpiperazine-1-carbonyloxy)hexahydroimidazo[1,5-a]pyrazine-7(1H)-carboxylate] | ABHD6 | ABHD6 | ABHD6 | FAAH,; also recorded: ABHD12,; also recorded: ABHD6 |
| 0% | 10% | 50% | 60% | 0% | 10% | 50% | 60% | CC(C)(C)OC(=O)N1CCN2C(=O)N(OC(=O)N3CCN(C(c4ccc(Cl)cc4)c4ccc(Cl)cc4)CC3)C(=O)C2C1 (stereo not drawn) [Compound 18, tert-butyl 2-(4-(bis(4-chlorophenyl)methyl)piperazine-1-carbonyloxy)-1,3-dioxohexahydroimidazo[1,5-a]pyrazine-7(1H)-carboxylate] | ABHD6 | ABHD6 | ABHD6 | ABHD6 |
